± gives the expanded uncertainty stated by the source.
Key:
[1] = 298.2 K; 101.33 kPa; Liquid; Pycnometric method
[2] = refractive index (Na D-line) (dimensionless); settings: 298.2 K; 101.33 kPa; Liquid; Standard Abbe refractometry

SMILES | mass density [1] | refractive index [2]
CCCCn1cc[n+](C)c1.COCCOCCOS(=O)(=O)[O-] [1-butyl-3-methylimidazolium 2-(2-methoxyethoxy)ethyl sulfate] | 1170 ± 10 kg/m3 | 1.48 ± 0.001
CCCCn1cc[n+](C)c1.F[P-](F)(F)(F)(F)F [1-butyl-3-methylimidazolium hexafluorophosphate] | 1380 ± 10 kg/m3 | 1.41 ± 0.001
CCCCn1cc[n+](C)c1.F[B-](F)(F)F [1-butyl-3-methylimidazolium tetrafluoroborate] | 1200 ± 10 kg/m3 | 1.422 ± 0.001
CCn1cc[n+](C)c1.Cc1ccc(S(=O)(=O)[O-])cc1 [1-ethyl-3-methylimidazolium 4-methylbenzenesulfonate] | 1210 ± 10 kg/m3 | 1.538 ± 0.001
CC(O)c1ccccc1 (stereo unspecified) [1-phenylethanol] | 1010 ± 2 kg/m3 | 1.5225 ± 0.0008
CCC(=O)OC(C)c1ccccc1 (stereo unspecified) [1-phenylethyl propionate] | 1007 ± 2 kg/m3 | 1.4865 ± 0.0008
CCC(=O)O [propanoic acid] | 992 ± 1 kg/m3 | 1.382 ± 0.001
C=COC(=O)CC [vinyl propanoate] | 919 ± 2 kg/m3 | 1.402 ± 0.001

— the NIST ThermoML archive (doi:10.1016/j.fluid.2007.10.011)
